This is an account of results in patent US20250387415A1, “COMPOSITIONS OF COPPER COMPLEXES” (University of Lancashire, priority 2022, published 2025).

Structures are written as SMILES.

The conditions of data set [1]: background; cited from earlier work.
Data set [2] can be described thus: Solubility limit in cubosomes solution (F03 nanostructured dispersions), sedimentation. Format: physicochemical.
Source text: The numbers in mg indicate CuASP content in 10 g cubosomes solution (formed of 0.5 g lipid+9.5 g of 0.5% F127 solution in water).
The conditions of data set [3]: background; cited from earlier work. This is another data set of the same source.
Data set [4] can be described thus: Hydrated lipid systems (F02): transparency check method for maximum solubility / encapsulation. Format: physicochemical.
Source text: Briefly, 1 mm thick transparent glass slide with a small well was filled with corresponding formulation and its ability to see-through was checked, as shown by photographs referenced in Table 2.
Briefly, 1 mm thick transparent glass slide with a small well was filled with corresponding formulation and its ability to see-through was checked, as shown by photographs referenced in Table 3.
The conditions of data set [5]: background; cited from earlier work. This is another data set of the same source.
Data set [6] is described as follows: Centrifugation (200 rpm for 5 min) of F01 encapsulation mixtures. Format: physicochemical. As to conditions: encapsulated mixture in MO or DU, visibly homogeneous at room temperature before. The procedure: It was in fact possible to add up to 126 mg of CuASP in 1 g of MO (as per F01-CuASP-MO-E) and up to about 130 mg in 1 g of DU (as per F01-CuASP-DU-E) (FIG. 4). […] With mere mixing by spatula the formulation was again homogeneous thereby encapsulating excess CuASP in the lipid phase.
With mere mixing by spatula the formulation was again homogeneous thereby encapsulating excess CuSL in the lipid phase.

Data set [7] is described as follows: Maximum copper complex content (solubility / encapsulation) of lipid formulations. Format: physicochemical.
Procedure: Spatula or similar tools were used to blend the constituents until homogeneous. • Mixtures were heated (to 40-60° C.) using block heater.

Regarding `CC(=O)Oc1ccccc1C(=O)[O-].CC(=O)Oc1ccccc1C(=O)[O-].CC(=O)Oc1ccccc1C(=O)[O-].CC(=O)Oc1ccccc1C(=O)[O-].[Cu+2].[Cu+2]` [CuASP, Copper (II) Aspirinate], the “irritancy to digestive track compared to aspirin” value in data set [1] is listed as “less irritant”. The “solubility limit in cubosomes solution per g of lipid” value in data set [2] (10 g cubosomes (0.5 g lipid + 9.5 g of 0.5% F127 solution)) is given as 50 mg/g of lipid. Besides, the “content that was sedimented in cubosomes solution” value in data set [2] (in 10 g cubosomes (0.5 g lipid + 9.5 g of 0.5% F127 solution in water)) turned out to be 26 mg. The solubility in water entry in data set [3] is “poorly soluble in water”. Further, the “amount encapsulated in DU cubic phase” value in data set [4] (in 1.25 g cubic phase) stood at 400 mg. Also, the “amount encapsulated in DU cubic phase per g of lipid” value in data set [4] (viscous cubic phase in presence of water) is recorded as “About 533 mg per g of lipid”. Moreover, the “potency as an anti-inflammatory agent compared to aspirin” value in data set [5] was “more potent”. For the same compound, the sedimentation after centrifugation result in data set [6] is on record as “some part of the powder sedimented”. This compound registered a solubility in lipids in data set [7] (non-aqueous lipids (MO, DU), F01) of 1 mg/g. The “amount possible to add (encapsulation) in 1 g of DU” value in data set [7] (non-aqueous, in 1 g of DU (F01-...-DU-E)) is “up to 130 mg”. Further, the “amount possible to add (encapsulation) in 1 g of MO” value in data set [7] (non-aqueous, in 1 g of MO (F01-...-MO-E)) is reported as “up to 126 mg”.
